# Results taken from US8652999B1, “Herbicidal compositions comprising 4-amino-3-chloro-5-fluoro-6-(4-chloro-2-fluoro-3-methoxyphenyl)pyridine-2-carboxylic acid or a derivative thereof and a sulfonylaminocarbonyltriazolinone” (Dow AgroSciences, LLC., priority 2012, dated 2014).
# Columns and labels:
# Assay type in all cases: in vivo
# Conditions in all cases: foliar, 20-22 days
# Stellaria media (STEME) = experiment: Postemergence herbicidal activity, greenhouse, STEME
# Protocol: (§1) Evaluation of Postemergence Herbicidal Activity of Mixtures in Cereal Crops
# (§2) Seeds of the desired test plant species were planted in Sun Gro MetroMix® 306 planting mixture, which typically has a pH of 6.0 to 6.8 and an organic matter content of about 30 percent, in plastic pots with a surface area of 103.2 square centimeters (cm^2). […] The plants were grown for 7-36 days in a greenhouse with an approximate 14 hour photoperiod which was maintained at about 18° C. during the day and 17° C. during the night. Nutrients and water were added on a regular basis and supplemental lighting was provided with overhead metal halide 1000-Watt lamps as necessary. The plants were employed for testing when they reached the second or third true leaf stage.
# (§3) Treatments consisted of the benzyl ester of the compound of formula (I) (Compound A as listed in Tables 1-8) and a second cereal herbicide alone and in combination. […] The concentrated stock solutions were diluted to 1.5 mg ai/mL with the addition of 2 volumes of an aqueous mixture containing acetone, water, isopropyl alcohol, DMSO, Agri-dex crop oil concentrate, and Triton® X-77 surfactant in a 64.7:26.0:6.7:2.0:0.7:0.01 v/v ratio. A dilution solution was prepared by mixing 1 volume of 97:3 v/v acetone/DMSO and 2 volumes of an aqueous mixture containing acetone, water, isopropyl alcohol, DMSO, Agri-dex crop oil concentrate, and Triton® X-77 surfactant in a 64.7:26.0:6.7:2.0:0.7:0.01 v/v ratio. Compound requirements are based upon a 12 mL application volume at a rate of 187 liters per hectare (L/ha). […] Formulated compounds were applied to the plant material with an overhead Mandel track sprayer equipped with 8002E nozzles calibrated to deliver 187 L/ha over an application area of 0.503 square meters (m^2) at a spray height of 18 inches (43 cm) above average plant canopy. Control plants were sprayed in the same manner with the solvent blank.
# (§4) The treated plants and control plants were placed in a greenhouse as described above and watered by sub-irrigation to prevent wash-off of the test compounds. After 20-22 days, the condition of the test plants as compared with that of the control plants was determined visually and scored on a scale of 0 to 100 percent where 0 corresponds to no injury and 100 corresponds to complete kill.
# (§5) Colby's equation was used to determine the herbicidal effects expected from the mixtures (Colby, S. R. 1967. Calculation of the synergistic and antagonistic response of herbicide combinations. Weeds 15:20-22.). Specifically, the following equation was used to calculate the expected activity of mixtures containing two active ingredients, A and B: Expected=A+B−(A×B/100) • A=observed efficacy of active ingredient A at the same concentration as used in the mixture. • B=observed efficacy of active ingredient B at the same concentration as used in the mixture.
# Kochia scoparia (KCHSC) = experiment: Postemergence herbicidal activity, greenhouse, KCHSC
# Protocol: as §1, §2, §3, §4, §5
# [1] = tested on: Apera spica-venti (APESV); experiment: Postemergence herbicidal activity, greenhouse, APESV
# Protocol: as §1, §2, §3, §4, §5
# Cirsium arvense (CIRAR) = experiment: Postemergence herbicidal activity, greenhouse, CIRAR
# Protocol: as §1, §2, §3, §4, §5
# Veronica persica (VERPE) = experiment: Postemergence herbicidal activity, greenhouse, VERPE
# Protocol: as §1, §2, §3, §4, §5
# Setaria viridis (SETVI) = experiment: Postemergence herbicidal activity, greenhouse, SETVI
# Protocol: as §1, §2, §3, §4
# (§6) Colby's equation was used to determine the herbicidal effects expected from the mixtures (Colby, S. R. 1967. Calculation of the synergistic and antagonistic response of herbicide combinations. Weeds 15:20-22.). […]
# [2] = tested on: Alopecurus myosuroides (ALOMY); experiment: Postemergence herbicidal activity, greenhouse, ALOMY
# Protocol: as §1, §2, §3, §4, §5
# [3] = tested on: Matricaria chamomila (MATCH); experiment: Postemergence herbicidal activity, greenhouse, MATCH
# Protocol: as §1, §2, §3, §4, §5
# [4] = tested on: Triticum aestivum (TRZAW); experiment: Postemergence herbicidal activity, greenhouse, TRZAW
# Protocol: as §1, §2, §3, §4, §5
# [5] = tested on: Triticum aestivum (TRZAS); experiment: Postemergence herbicidal activity, greenhouse, TRZAS
# Protocol: as §1, §2
# (§7) Treatments consisted of the benzyl ester of the compound of formula (I) (Compound A as listed in Tables 1-8) and a second cereal herbicide alone and in combination. […]
# (§8) The treated plants and control plants were placed in a greenhouse as described above and watered by sub-irrigation to prevent wash-off of the test compounds. After 20-22 days, the condition of the test plants as compared with that of the control plants was determined visually and scored on a scale of 0 to 100 percent where 0 corresponds to no injury and 100 corresponds to complete kill. […]
# Papaver rhoeas (PAPRH) = experiment: Postemergence herbicidal activity, greenhouse, PAPRH
# Protocol: as §1, §2, §3, §4, §5
# Lamium purpureum (LAMPU) = experiment: Postemergence herbicidal activity, greenhouse, LAMPU
# Protocol: as §1, §2, §3, §4, §6
# [6] = tested on: Lolium multiflorum subsp. gaudini (LOLMG); experiment: Postemergence herbicidal activity, greenhouse, LOLMG
# Protocol: as §1, §2, §3, §4, §5
# Salsola tragus (SASKR) = experiment: Postemergence herbicidal activity, greenhouse, SASKR
# Protocol: as §1, §2, §3, §4, §5
# [7] = tested on: Chenopodium album (CHEAL); experiment: Postemergence herbicidal activity, greenhouse, CHEAL
# Protocol: as §1, §2, §7, §8
# Hordeum vulgare (HORVS) = experiment: Postemergence herbicidal activity, greenhouse, HORVS
# Protocol: as §1, §2, §7, §8
# Viola tricolor (VIOTR) = experiment: Postemergence herbicidal activity, greenhouse, VIOTR
# Protocol: as §1, §2, §3, §4, §5
# Galium aparine (GALAP) = experiment: Postemergence herbicidal activity, greenhouse, GALAP
# Protocol: as §1, §2, §7, §8
compound,measurement,setting,value
"COc1c(Cl)ccc(-c2nc(C(=O)OCc3ccccc3)c(Cl)c(N)c2F)c1F [Compound A, benzyl ester of 4-amino-3-chloro-5-fluoro-6-(4-chloro-2-fluoro-3-methoxyphenyl)pyridine-2-carboxylic acid]",STEME Obs,Stellaria media (STEME); Compound A 5 g ai/ha,50%
same,STEME Obs,Stellaria media (STEME); Compound A 8.75 g/ha,68%
same,STEME Obs,Stellaria media (STEME); Compound A 10 g ai/ha,63%
same,KCHSC Obs,Kochia scoparia (KCHSC); Compound A 2.5 g ha,20%
same,KCHSC Obs,Kochia scoparia (KCHSC); Compound A 5 g ai/ha,60%
same,KCHSC Obs,Kochia scoparia (KCHSC); Compound A 5 g ha,40%
same,KCHSC Obs,Kochia scoparia (KCHSC); Compound A 10 g ai/ha,57%
same,APESV Obs,[1]; Compound A 5 g ha,0%
same,APESV Obs,[1]; Compound A 5 g/ha,0%
same,APESV Obs,[1]; Compound A 10 g ha,0%
same,APESV Obs,[1]; Compound A 10 g/ha,0%
same,CIRAR Obs,Cirsium arvense (CIRAR); Compound A 2.5 g ha,10%
same,CIRAR Obs,Cirsium arvense (CIRAR); Compound A 5 g ha,20%
same,CIRAR Obs,Cirsium arvense (CIRAR); Compound A 8.75 g/ha,40%
same,VERPE Obs,Veronica persica (VERPE); Compound A 5 g ai/ha,13%
same,VERPE Obs,Veronica persica (VERPE); Compound A 8.75 g/ha,50%
same,VERPE Obs,Veronica persica (VERPE); Compound A 10 g ai/ha,25%
same,SETVI Obs,Setaria viridis (SETVI); Compound A 5 g ha,0%
same,SETVI Obs,Setaria viridis (SETVI); Compound A 10 g ha,0%
same,ALOMY Obs,[2]; Compound A 5 g ha,0%
same,ALOMY Obs,[2]; Compound A 5 g/ha,0%
same,ALOMY Obs,[2]; Compound A 10 g ha,0%
same,ALOMY Obs,[2]; Compound A 10 g/ha,0%
same,MATCH Obs,[3]; Compound A 2.5 g ha,0%
same,MATCH Obs,[3]; Compound A 5 g ai/ha,20%
same,MATCH Obs,[3]; Compound A 5 g ha,10%
same,MATCH Obs,[3]; Compound A 8.75 g/ha,20%
same,MATCH Obs,[3]; Compound A 10 g ai/ha,40%
same,TRZAW Obs,[4]; Compound A 5 g ai/ha,7%
same,TRZAW Obs,[4]; Compound A 10 g ai/ha,7%
same,TRZAS Obs,[5]; Compound A 2.5 g ha,0%
same,TRZAS Obs,[5]; Compound A 5 g ha,5%
same,PAPRH Obs,Papaver rhoeas (PAPRH); Compound A 5 g ai/ha,46%
same,PAPRH Obs,Papaver rhoeas (PAPRH); Compound A 10 g ai/ha,48%
same,LAMPU Obs,Lamium purpureum (LAMPU); Compound A 2.5 g ha,80%
same,LAMPU Obs,Lamium purpureum (LAMPU); Compound A 5 g ha,80%
same,LAMPU Obs,Lamium purpureum (LAMPU); Compound A 8.75 g/ha,83%
same,LOLMG Obs,[6]; Compound A 5 g ha,0%
same,LOLMG Obs,[6]; Compound A 5 g/ha,0%
same,LOLMG Obs,[6]; Compound A 10 g ha,0%
same,LOLMG Obs,[6]; Compound A 10 g/ha,0%
same,SASKR Obs,Salsola tragus (SASKR); Compound A 2.5 g ha,10%
same,SASKR Obs,Salsola tragus (SASKR); Compound A 5 g ai/ha,75%
same,SASKR Obs,Salsola tragus (SASKR); Compound A 5 g ha,60%
same,SASKR Obs,Salsola tragus (SASKR); Compound A 10 g ai/ha,78%
same,CHEAL Obs,[7]; Compound A 2.5 g ha,50%
same,CHEAL Obs,[7]; Compound A 5 g ha,60%
same,HORVS Obs,Hordeum vulgare (HORVS); Compound A 2.5 g ha,0%
same,HORVS Obs,Hordeum vulgare (HORVS); Compound A 5 g ha,0%
same,VIOTR Obs,Viola tricolor (VIOTR); Compound A 2.5 g ha,10%
same,VIOTR Obs,Viola tricolor (VIOTR); Compound A 5 g ai/ha,27%
same,VIOTR Obs,Viola tricolor (VIOTR); Compound A 5 g ha,10%
same,VIOTR Obs,Viola tricolor (VIOTR); Compound A 10 g ai/ha,37%
same,GALAP Obs,Galium aparine (GALAP); Compound A 2.5 g ha,60%
same,GALAP Obs,Galium aparine (GALAP); Compound A 5 g ha,60%
